# Measured values taken from paper PMC11070402, “New antiproliferative 3-substituted oxindoles inhibiting EGFR/VEGFR-2 and tubulin polymerization” (Molecular Diversity, 2023).
# System: MOLT-4
# Experiment: NCI one-dose assay, MOLT-4
# Format: cell-based
# Conditions: Homo sapiens; MOLT-4 (Leukemia), 10 uM single dose; read-out: Growth inhibition %
# Protocol: (§1) All novel scaffolds 6a–j were carefully selected by the National Cancer Institute (NCI), Bethesda, USA, to elucidate their cytotoxic activity versus 60 human cancer cell lines at 10 µM as a single-dose concentration after a 48 h incubation period.
# (§2) National Cancer Institution selected all the synthesized 6a–j (NCI), Bethesda, USA, for in vitro one-dose antitumor assay. The methodology protocol for the NCI anticancer screening was reported in detail elsewhere (http://www.dtp.nci.nih.gov). The anticancer assay was performed in full NCI 60 cell lines extracted from nine tumor cell lines, including leukemia, melanoma, lung, colon, CNS, ovarian, renal, prostate, and breast cancer cell lines.
row,SMILES,inhibition at 10 µM
1,"COc1ccc(C(=O)COc2ccc(/C=C3/C(=O)Nc4cc(Cl)ccc43)cc2)cc1 [Compound 6j, (E/Z)-6-Chloro-3-{4-[2-(4-methoxyphenyl)-2-oxoethoxy]benzylidene}indolin-2-one]",30.3%

# System: 60 human cancer cell lines
# Experiment: NCI one-dose assay against sixty NCI cancer cell lines
# Format: cell-based
# Conditions: ACHN (Renal Cancer), 10 uM single dose, read-out: Growth inhibition %
# Protocol: as §1, §2
row,SMILES,inhibition at 10 µM
1,"COc1ccc(C(=O)COc2ccc(/C=C3/C(=O)Nc4cc(Cl)ccc43)cc2)cc1 [Compound 6j, (E/Z)-6-Chloro-3-{4-[2-(4-methoxyphenyl)-2-oxoethoxy]benzylidene}indolin-2-one]",10.1%

# Same assay, conditions: CAKI-1 (Renal Cancer), 10 uM single dose, read-out: Growth inhibition %
row,SMILES,inhibition at 10 µM
1,"COc1ccc(C(=O)COc2ccc(/C=C3/C(=O)Nc4cc(Cl)ccc43)cc2)cc1 [Compound 6j, (E/Z)-6-Chloro-3-{4-[2-(4-methoxyphenyl)-2-oxoethoxy]benzylidene}indolin-2-one]",23.2%

# Same assay, conditions: HCT-116 (Colon Cancer), 10 uM single dose, read-out: Growth inhibition %
row,SMILES,inhibition at 10 µM
1,"COc1ccc(C(=O)COc2ccc(/C=C3/C(=O)Nc4cc(Cl)ccc43)cc2)cc1 [Compound 6j, (E/Z)-6-Chloro-3-{4-[2-(4-methoxyphenyl)-2-oxoethoxy]benzylidene}indolin-2-one]",12.2%

# Same assay, conditions: HOP-62 (Non-Small Cell Lung Cancer), 10 uM single dose, read-out: Growth inhibition %
row,SMILES,inhibition at 10 µM
1,"COc1ccc(C(=O)COc2ccc(/C=C3/C(=O)Nc4cc(Cl)ccc43)cc2)cc1 [Compound 6j, (E/Z)-6-Chloro-3-{4-[2-(4-methoxyphenyl)-2-oxoethoxy]benzylidene}indolin-2-one]",16.7%

# Same assay, conditions: IGROV-1, IGROV1 (Ovarian Cancer), 10 uM single dose, read-out: Growth inhibition %
row,SMILES,inhibition at 10 µM
1,"COc1ccc(C(=O)COc2ccc(/C=C3/C(=O)Nc4cc(Cl)ccc43)cc2)cc1 [Compound 6j, (E/Z)-6-Chloro-3-{4-[2-(4-methoxyphenyl)-2-oxoethoxy]benzylidene}indolin-2-one]",21.5%

# Same assay, conditions: M14 (Melanoma), 10 uM single dose, read-out: Growth inhibition %
row,SMILES,inhibition at 10 µM
1,"COc1ccc(C(=O)COc2ccc(/C=C3/C(=O)Nc4cc(Cl)ccc43)cc2)cc1 [Compound 6j, (E/Z)-6-Chloro-3-{4-[2-(4-methoxyphenyl)-2-oxoethoxy]benzylidene}indolin-2-one]",10.3%

# Same assay, conditions: MDA-MB-231, read-out: Growth inhibition %
row,SMILES,inhibition at 10 µM
1,"COc1ccc(C(=O)COc2ccc(/C=C3/C(=O)Nc4cc(Cl)ccc43)cc2)cc1 [Compound 6j, (E/Z)-6-Chloro-3-{4-[2-(4-methoxyphenyl)-2-oxoethoxy]benzylidene}indolin-2-one]",12.2%

# Same assay, conditions: NCI-H226 (Non-Small Cell Lung Cancer), 10 uM single dose, read-out: Growth inhibition %
row,SMILES,inhibition at 10 µM
1,"COc1ccc(C(=O)COc2ccc(/C=C3/C(=O)Nc4cc(Cl)ccc43)cc2)cc1 [Compound 6j, (E/Z)-6-Chloro-3-{4-[2-(4-methoxyphenyl)-2-oxoethoxy]benzylidene}indolin-2-one]",13.2%

# Same assay, conditions: OVCAR-3 (Ovarian Cancer), 10 uM single dose, read-out: Growth inhibition %
row,SMILES,inhibition at 10 µM
1,"COc1ccc(C(=O)COc2ccc(/C=C3/C(=O)Nc4cc(Cl)ccc43)cc2)cc1 [Compound 6j, (E/Z)-6-Chloro-3-{4-[2-(4-methoxyphenyl)-2-oxoethoxy]benzylidene}indolin-2-one]",18.1%

# Same assay, conditions: OVCAR-4 (Ovarian Cancer), 10 uM single dose, read-out: Growth inhibition %
row,SMILES,inhibition at 10 µM
1,"COc1ccc(C(=O)COc2ccc(/C=C3/C(=O)Nc4cc(Cl)ccc43)cc2)cc1 [Compound 6j, (E/Z)-6-Chloro-3-{4-[2-(4-methoxyphenyl)-2-oxoethoxy]benzylidene}indolin-2-one]",11%

# Same assay, conditions: OVCAR-8 (Ovarian Cancer), 10 uM single dose, read-out: Growth inhibition %
row,SMILES,inhibition at 10 µM
1,"COc1ccc(C(=O)COc2ccc(/C=C3/C(=O)Nc4cc(Cl)ccc43)cc2)cc1 [Compound 6j, (E/Z)-6-Chloro-3-{4-[2-(4-methoxyphenyl)-2-oxoethoxy]benzylidene}indolin-2-one]",13.4%

# Same assay, conditions: PC-3 (Prostate Cancer), 10 uM single dose, read-out: Growth inhibition %
row,SMILES,inhibition at 10 µM
1,"COc1ccc(C(=O)COc2ccc(/C=C3/C(=O)Nc4cc(Cl)ccc43)cc2)cc1 [Compound 6j, (E/Z)-6-Chloro-3-{4-[2-(4-methoxyphenyl)-2-oxoethoxy]benzylidene}indolin-2-one]",33.5%

# Same assay, conditions: U-251, U251 (CNS Cancer), 10 uM single dose, read-out: Growth inhibition %
row,SMILES,inhibition at 10 µM
1,"COc1ccc(C(=O)COc2ccc(/C=C3/C(=O)Nc4cc(Cl)ccc43)cc2)cc1 [Compound 6j, (E/Z)-6-Chloro-3-{4-[2-(4-methoxyphenyl)-2-oxoethoxy]benzylidene}indolin-2-one]",12.9%

# Same assay, conditions: UACC-62 (Melanoma), 10 uM single dose, read-out: Growth inhibition %
row,SMILES,inhibition at 10 µM
1,"COc1ccc(C(=O)COc2ccc(/C=C3/C(=O)Nc4cc(Cl)ccc43)cc2)cc1 [Compound 6j, (E/Z)-6-Chloro-3-{4-[2-(4-methoxyphenyl)-2-oxoethoxy]benzylidene}indolin-2-one]",23.8%

# System: K-562
# Experiment: NCI one-dose assay, K-562
# Format: cell-based
# Conditions: Homo sapiens, K562; K-562 (Leukemia), 10 uM single dose; read-out: Growth inhibition %
# Protocol: as §1, §2
row,SMILES,inhibition at 10 µM
1,"COc1ccc(C(=O)COc2ccc(/C=C3/C(=O)Nc4cc(Cl)ccc43)cc2)cc1 [Compound 6j, (E/Z)-6-Chloro-3-{4-[2-(4-methoxyphenyl)-2-oxoethoxy]benzylidene}indolin-2-one]",22.8%

# System: MCF-7
# Experiment: NCI one-dose assay, MCF-7
# Format: cell-based, human
# Conditions: Homo sapiens, MCF7, MCF7 (Breast Cancer), 10 uM single dose; read-out: Growth inhibition %
# Protocol: as §1, §2
row,SMILES,inhibition at 10 µM
1,"COc1ccc(C(=O)COc2ccc(/C=C3/C(=O)Nc4cc(Cl)ccc43)cc2)cc1 [Compound 6j, (E/Z)-6-Chloro-3-{4-[2-(4-methoxyphenyl)-2-oxoethoxy]benzylidene}indolin-2-one]",34.4%

# System: SR
# Experiment: NCI one-dose assay, SR
# Format: cell-based
# Conditions: Homo sapiens; SR (Leukemia), 10 uM single dose; read-out: Growth inhibition %
# Protocol: as §1, §2
row,SMILES,inhibition at 10 µM
1,"COc1ccc(C(=O)COc2ccc(/C=C3/C(=O)Nc4cc(Cl)ccc43)cc2)cc1 [Compound 6j, (E/Z)-6-Chloro-3-{4-[2-(4-methoxyphenyl)-2-oxoethoxy]benzylidene}indolin-2-one]",16.7%

# System: UO-31
# Experiment: NCI one-dose assay, UO-31
# Format: cell-based
# Conditions: Homo sapiens; UO-31 (Renal Cancer), 10 uM single dose; read-out: Growth inhibition %
# Protocol: as §1, §2
row,SMILES,inhibition at 10 µM
1,"COc1ccc(C(=O)COc2ccc(/C=C3/C(=O)Nc4cc(Cl)ccc43)cc2)cc1 [Compound 6j, (E/Z)-6-Chloro-3-{4-[2-(4-methoxyphenyl)-2-oxoethoxy]benzylidene}indolin-2-one]",35.9%

# System: not given
# Experiment: not given
# Conditions: not given
row,SMILES,melting point
1,"COc1ccc(C(=O)COc2ccc(/C=C3/C(=O)Nc4cc(Cl)ccc43)cc2)cc1 [Compound 6j, (E/Z)-6-Chloro-3-{4-[2-(4-methoxyphenyl)-2-oxoethoxy]benzylidene}indolin-2-one]",165 to 167 °C

# System: HOP-92 (non-small cell lung cancer cell line)
# Experiment: NCI one-dose assay, HOP-92
# Format: cell-based
# Conditions: Homo sapiens; HOP-92 (Non-Small Cell Lung Cancer), 10 uM single dose; read-out: Growth inhibition %
# Protocol: as §1, §2
row,SMILES,inhibition at 10 µM
1,"COc1ccc(C(=O)COc2ccc(/C=C3/C(=O)Nc4cc(Cl)ccc43)cc2)cc1 [Compound 6j, (E/Z)-6-Chloro-3-{4-[2-(4-methoxyphenyl)-2-oxoethoxy]benzylidene}indolin-2-one]",34.8%

# System: T-47D
# Experiment: NCI one-dose assay, T-47D
# Format: cell-based
# Conditions: Homo sapiens, T47D; T-47D (Breast Cancer), 10 uM single dose; read-out: Growth inhibition %
# Protocol: as §1, §2
row,SMILES,inhibition at 10 µM
1,"COc1ccc(C(=O)COc2ccc(/C=C3/C(=O)Nc4cc(Cl)ccc43)cc2)cc1 [Compound 6j, (E/Z)-6-Chloro-3-{4-[2-(4-methoxyphenyl)-2-oxoethoxy]benzylidene}indolin-2-one]",15.6%

# System: NCI-H23
# Experiment: NCI one-dose assay, NCI-H23
# Format: cell-based
# Conditions: Homo sapiens; NCI-H23 (Non-Small Cell Lung Cancer), 10 uM single dose; read-out: Growth inhibition %
# Protocol: as §1, §2
row,SMILES,inhibition at 10 µM
1,"COc1ccc(C(=O)COc2ccc(/C=C3/C(=O)Nc4cc(Cl)ccc43)cc2)cc1 [Compound 6j, (E/Z)-6-Chloro-3-{4-[2-(4-methoxyphenyl)-2-oxoethoxy]benzylidene}indolin-2-one]",10.5%

# System: SNB-75 cells (CNS cancer cell line)
# Experiment: NCI one-dose assay, SNB-75
# Format: cell-based
# Conditions: Homo sapiens; SNB-75 (CNS Cancer), 10 uM single dose; read-out: Growth inhibition %
# Protocol: as §1, §2
row,SMILES,inhibition at 10 µM
1,"COc1ccc(C(=O)COc2ccc(/C=C3/C(=O)Nc4cc(Cl)ccc43)cc2)cc1 [Compound 6j, (E/Z)-6-Chloro-3-{4-[2-(4-methoxyphenyl)-2-oxoethoxy]benzylidene}indolin-2-one]",36.7%
